Assay results taken from ChEMBL document CHEMBL1201862, “PubChem BioAssay data set” (2004).
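Test compounds were applied to cells in 96-well plates for 48 hours at 5 doses. Abbreviation: GI50, concentration required for 50% inhibition of growth.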 Calls of active or inactive are those of the source. Rule as the data show it: active = GI50 up to about 1.1 µM and inactive = higher.

Tests used:
Experiment in all cases: DTP human tumour cell line panel, 48 h
[1] = system: A549
[2] = system: M14
[3] = system: UACC-62
[4] = system: IGROV-1
[5] = system: SF-295
[6] = system: MOLT-4
[7] = system: HCT-15
[8] = system: HCC 2998
[9] = system: EKVX
[10] = system: ACHN
[11] = system: NCI-H460
[12] = system: HOP-62
[13] = system: LXFL 529
[14] = system: 786-0
[15] = system: KM12
[16] = system: Malme-3M
[17] = system: KM-20L2
[18] = system: HOP-18
[19] = system: OVCAR-5
[20] = system: K562
[21] = system: LOX IMVI
[22] = system: SN12C
[23] = system: OVCAR-3
[24] = system: UACC-257
[25] = system: RPMI-8226
[26] = system: M19-MEL
[27] = system: HT-29
[28] = system: OVCAR-8
[29] = system: SK-MEL-28
[30] = system: SNB-78
[31] = system: SNB-19
[32] = system: A498
[33] = system: HL-60
[34] = system: HCT-116
[35] = system: CCRF-CEM
[36] = system: SW-620
[37] = system: SNB-75
[38] = system: NCI-H23
[39] = system: OVCAR-4
[40] = system: DLD-1
[41] = system: SK-OV-3
[42] = system: SF-539
[43] = system: COLO 205
[44] = system: DMS-273
[45] = system: CAKI-1
[46] = system: SF-268
[47] = system: TK-10
[48] = system: U-251
[49] = system: SR
[50] = system: HOP-92
[51] = system: NCI-H226
[52] = system: SK-MEL-2
[53] = system: NCI-H522
[54] = system: UO-31
[55] = system: SK-MEL-5
[56] = system: DMS-114
[57] = system: XF498
[58] = system: RXF 393

Measured: GI50

CCc1cccc(CC)c1NC(=O)C1=C(C)NC(C)=C(C(=O)Nc2c(CC)cccc2CC)C1c1ccc2c(c1)OCO2
12.4 µM: [7]
inactive: [1] 25.9 µM | [2] 16.8 µM | [3] 12.6 µM | [4] 18.8 µM | [5] 13.9 µM | [6] 56.8 µM | [8] 21.6 µM | [9] 19.9 µM | [10] 19.4 µM | [11] 14 µM | [12] 19.2 µM | [13] 15.9 µM | [14] 16.4 µM | [15] 20.4 µM | [16] 14.9 µM | [17] 16.9 µM | [18] 20.6 µM | [19] 17.7 µM | [20] 15.6 µM | [21] 12.7 µM | [22] 15.3 µM | [23] 13.9 µM | [24] 17.9 µM | [25] 22.5 µM | [26] 16.7 µM | [27] 15.9 µM | [28] 18.5 µM | [29] 20 µM | [30] 22.6 µM | [31] 17.4 µM | [32] 21.7 µM | [33] 8 µM | [34] 18.2 µM | [35] 5.93 µM | [36] 17 µM | [37] 18.8 µM | [38] 17.6 µM | [39] 16.6 µM | [40] 24.3 µM | [41] 25.8 µM | [42] 22.5 µM | [43] 13.4 µM | [44] 13.3 µM | [45] 20.1 µM | [46] 18.1 µM | [47] 33.6 µM | [48] 14 µM | [49] 3.66 µM | [50] 14 µM | [51] 15 µM | [52] 18.6 µM | [53] 13.8 µM | [54] 17.1 µM | [55] 18.1 µM

CN(C)/N=N/c1ccc(S(N)(=O)=O)cc1
inactive: [1] > 100 µM | [2] > 100 µM | [3] > 100 µM | [4] > 100 µM | [5] > 100 µM | [6] > 100 µM | [8] > 100 µM | [9] > 100 µM | [10] > 100 µM | [11] > 100 µM | [12] > 100 µM | [14] > 100 µM | [15] > 100 µM | [16] > 100 µM | [17] > 100 µM | [18] > 100 µM | [19] > 100 µM | [20] > 100 µM | [21] > 100 µM | [22] > 100 µM | [23] > 100 µM | [24] > 100 µM | [25] > 100 µM | [26] > 100 µM | [27] > 100 µM | [28] > 100 µM | [29] > 100 µM | [31] > 100 µM | [32] > 100 µM | [34] > 100 µM | [35] 6.43 µM | [36] > 100 µM | [56] > 100 µM | [37] 92.9 µM | [38] > 100 µM | [39] > 100 µM | [40] > 100 µM | [57] > 100 µM | [41] > 100 µM | [42] > 100 µM | [43] > 100 µM | [44] > 100 µM | [45] > 100 µM | [46] > 100 µM | [47] > 100 µM | [48] > 100 µM | [49] > 100 µM | [50] > 100 µM | [51] > 100 µM | [52] > 100 µM | [53] > 100 µM | [54] > 100 µM | [55] > 100 µM
> 100 µM: [7]

O=[N+]([O-])c1cccc(S(=O)(=O)N/N=C/c2cc(I)cc([N+](=O)[O-])c2O)c1
inactive: [1] > 100 µM | [2] 27.2 µM | [3] 22 µM | [4] 36.3 µM | [5] 32.7 µM | [6] 31.5 µM | [8] 57 µM | [9] 29 µM | [10] 31.5 µM | [11] 34 µM | [12] 26.7 µM | [13] 21.5 µM | [14] 31.8 µM | [15] 32.4 µM | [16] 25.9 µM | [17] 43 µM | [18] 29.6 µM | [19] 40.1 µM | [20] 29.8 µM | [21] 27.9 µM | [22] 24.2 µM | [23] 21.4 µM | [24] 25.2 µM | [25] 37 µM | [58] 26.4 µM | [26] 34.8 µM | [27] 26.7 µM | [28] 25.6 µM | [29] 27.7 µM | [30] 22 µM | [31] 23.9 µM | [32] > 100 µM | [33] 21.3 µM | [34] 27.9 µM | [35] 20.1 µM | [36] 22 µM | [56] 21.6 µM | [37] 22.4 µM | [38] 22 µM | [39] 27.9 µM | [40] 42.5 µM | [41] 26.5 µM | [42] 23.8 µM | [43] 16.5 µM | [44] 25.6 µM | [45] 20.3 µM | [46] 30.1 µM | [47] 29.2 µM | [48] 20.9 µM | [49] 26.9 µM | [50] 16.8 µM | [52] 19.7 µM | [53] 18.8 µM | [54] 26.1 µM | [55] 22.7 µM
24.5 µM: [7]

O=C(COC(=O)c1cccc2c(=O)c3ccccc3[nH]c12)Nc1ccc(Cl)cc1
inactive: [1] > 100 µM | [2] 78.9 µM | [3] 54.1 µM | [4] 70.6 µM | [5] 25.5 µM | [6] 26.3 µM | [8] > 100 µM | [9] 8.28 µM | [10] 32.8 µM | [11] 63.4 µM | [12] 22.1 µM | [13] 61.7 µM | [14] 23.1 µM | [15] 28.9 µM | [16] > 100 µM | [17] > 100 µM | [18] > 100 µM | [20] > 100 µM | [21] 23.2 µM | [22] > 100 µM | [23] > 100 µM | [24] > 100 µM | [58] 16.8 µM | [26] > 100 µM | [27] 67.9 µM | [28] > 100 µM | [29] > 100 µM | [30] 25.7 µM | [31] 35 µM | [32] 7.96 µM | [33] 11.6 µM | [34] 13.6 µM | [35] 54 µM | [36] 85.5 µM | [56] 58.6 µM | [37] 24.3 µM | [38] 18.8 µM | [39] 95.9 µM | [40] 16.9 µM | [57] 46.8 µM | [41] 82.8 µM | [42] 26.1 µM | [43] > 100 µM | [45] > 100 µM | [46] > 100 µM | [47] 13.1 µM | [48] 24.9 µM | [49] 19.7 µM | [50] 58.9 µM | [51] 72.8 µM | [53] 23.9 µM | [54] 9.64 µM | [55] 44.2 µM

Nc1nc2c(ncn2CCCC(c2ccccc2)P(=O)(O)O)c(=O)[nH]1 (stereo not given)
inactive: [1] > 100 µM | [2] > 100 µM | [3] > 100 µM | [4] > 100 µM | [5] > 100 µM | [6] > 100 µM | [8] > 100 µM | [9] > 100 µM | [10] > 100 µM | [11] > 100 µM | [12] > 100 µM | [13] > 100 µM | [14] > 100 µM | [15] > 100 µM | [16] > 100 µM | [17] > 100 µM | [18] 62.4 µM | [19] > 100 µM | [20] > 100 µM | [21] > 100 µM | [22] > 100 µM | [23] > 100 µM | [24] > 100 µM | [25] > 100 µM | [26] > 100 µM | [27] > 100 µM | [28] > 100 µM | [29] > 100 µM | [30] > 100 µM | [31] > 100 µM | [33] > 100 µM | [34] > 100 µM | [35] > 100 µM | [36] > 100 µM | [56] > 100 µM | [37] > 100 µM | [38] > 100 µM | [40] > 100 µM | [41] > 100 µM | [42] > 100 µM | [43] > 100 µM | [44] > 100 µM | [45] > 100 µM | [46] > 100 µM | [47] > 100 µM | [48] > 100 µM | [50] 91.8 µM | [52] > 100 µM | [53] > 100 µM | [54] > 100 µM | [55] > 100 µM
> 100 µM: [7]
